The results in this text go back to patent US20090232735A1, “USE OF FRUCTOSE-BASED THERAPIES FOR THE TREATMENT OF CANCER” (CEDARS-SINAI MEDICAL CENTER, priority 2005, published 2009).

What all share (type): cell-based, human
In one experiment the test system is GLUT-5 mRNA. Kind of experiment: GLUT-5 mRNA by real-time RT-PCR in PANC-1 cells. The protocol: FIG. 22 depicts […] mRNA levels in pancreatic cancer cells in accordance with an embodiment of the present invention. Quantitative real-time RT-PCR was used to measure GLUT-5 mRNA levels in pancreatic cancer cells (PANC-1), following culture in 2 mM glucose, 5.5 mM glucose, or 5.5 mM fructose for 4 h and 24 h.
Brit J Biomed Sci 56(4): 285-292, 1999; Rogers S, Docherty S E, Slavin J L, Henderson and Best J D. Differential expression of GLUT12 in breast cancer and normal breast tissue. Cancer Letters 193(2): 225-233, 2003). […] Teal-time RT-PCR was used to measure GLUT-5 mRNA expression following 2 mM, and 5.5 mM glucose-, and 5.5 mM fructose-treatment for 4 h, and 24 h respectively. GLUT-5 mRNA was expressed as the fold-change relative to GLUT-5 mRNA levels in 2 mM glucose-treated cells. As depicted in FIG. 22, at 4 h, GLUT-5 mRNA levels were low in both the 5.5 mM glucose-, and fructose-treated PANC-1 cells. […] This agrees with other studies which have reported fructose-induced GLUT-5 mRNA expression in colon cancer (Gouyon F, Onesto C, Dalet V, Pages G, Leturque A, and Brot-Laroche E. Fructose modulates GLUT5 mRNA stability in differentiated Caco-2 cells: Role of cAMP-signalling pathway and PABP (polyadenylated-binding protein)-interacting protein (Paip) 2. J Biochem 375:167-174, 2003).
A general note: In qPCR the cycle at which signal appears reflects the starting amount.

The test system of experiment [1] is PANC-1 pancreatic cancer cells. Kind of experiment: BRDU uptake in PANC-1 cells. Particulars: PANC-1, 5.5 mM fructose, 72 h. The protocol: FIG. 16 depicts BRDU uptake following treatment with glucose or fructose in accordance with an embodiment of the present invention. PANC-1 cells were pre-incubated in 2 mM glucose prior to treatment with 5.5 mM glucose or fructose for 72 h. BRDU (0.01 mg/ml) was added to the medium at 48 h, and BRDU-uptake quantified at 72 h.
As a further measure of PANC-1 proliferative rates, the inventors compared bromodeoxyuridine (BRDU) uptake following PANC-1 cell treatment as before with 2 mM, and 5.5 mM glucose, or 5.5 mM fructose for 72 h. In the final 12 h, 10 μM BRDU was added to the glucose-, and fructose-treated cells, after which BRDU-positive cells were counted. […] A further question the inventors sought to address was would the fructose-induced pancreatic cancer proliferative rates be maintained if the PANC-1 cells were also exposed to, and able to utilize their customary culture glucose concentrations. Therefore, the inventors cultured PANC-1 cells for 72 h in a range of glucose concentrations (0-15 mM) admixed with a range of fructose concentrations (0-15 mM).

The test system of experiment [2] is PANC-1 pancreatic cancer cells. Description: [1,2-13C2] stable isotope metabolic profiling in PANC-1 cells. As to the method: FIG. 28 depicts the metabolism of fructose and glucose in pancreatic cancer cells in accordance with an embodiment of the present invention. Lactate generation from glycolysis (a), and hexose oxidation in the pentose and tricarboxylic acid cycles (b) following treatment of PANC-1 cells with 2 mM glucose, 5.5 mM glucose, and 5.5 mM fructose for 72 h. […] In (b), the ^13C to ^12C ratio in the CO2 released from the PANC-1 cells is presented.
FIG. 29 depicts fatty acid synthesis from glucose versus fructose in accordance with an embodiment of the present invention. Fatty acid synthesis represented by (a), ^13C-labelled oleate, (b) ^13C-labelled arachidic acid, and (c) ^13C-labelled 24-carbon fatty acid fraction following treatment of PANC-1 cells with 2 mM, and 5.5 mM glucose, and 5.5 mM fructose for 72 h. For the fatty acids, the fraction of ^13C-labeled oleate, arachidic acid or 24-carbon fatty acid is expressed as percentage of total oleate, arachidic acid or 24-carbon fatty acids, respectively.
FIG. 30 depicts ribose and deoxyribose synthesis following glucose and fructose treatment in accordance with an embodiment of the present invention.
Metabolism comprises anabolic (converting small molecules into big ones) and catabolic processes (converting food into useful energy), predicts the functional state of a cell, and analyzes the levels of the end products (metabolites) of anabolism and catabolism. […] The inventors employed [1, 2-^13C2] glucose, or [1,2-^13C2] fructose stable isotope-based dynamic metabolic profiling (SiDMAP, Los Angeles, US) to track and quantify changes in glucose, and fructose carbon re-distribution among major metabolic pathways in pancreatic cancer cells (Lee W N, Boros L G, Puigjaner J, Bassilian S, Lim S, Cascante M. Mass istopomer study of transketolase-transaldolase pathways of the pentose cycle with [1,2-^13C2]glucose. Am J Physiol 274:E843-51, 1998; Lee W N, Byerley L O, Bassilian S, Ajie H O, Clark I, Edmond J. Isotopomer study of lipogenesis in human hepatoma cells in culture: contribution of carbon and hydrogen atoms from glucose. […]

SMILES strings stand for the structures.

With `O=C(CO)[C@@H](O)[C@H](O)[C@H](O)CO` [fructose], in the experiment on GLUT-5 mRNA (PANC-1, 5.5 mM fructose, 24 h), the “GLUT-5 mRNA levels higher than in 2 mM glucose-treated cells” value is 1.5 fold and the “GLUT-5 mRNA levels higher than in 5.5 mM glucose-treated cells” value was found to be 1.75 fold. Further, the “GLUT-5 mRNA levels” value with GLUT-5 mRNA (PANC-1, 5.5 mM sugar, 4 h) was “low”. In addition, the “BRDU-uptake higher than with 5.5 mM glucose” value in experiment [1] is recorded as ~75%. Besides, the “pentose phosphate shunt pathway used (oxidative G6PDH vs non-oxidative TKK)” value in experiment [2] (PANC-1, 5.5 mM sugar, 72 h) is “preferentially metabolized by TKK”. The “lactate and CO2 production lower for fructose in comparison to glucose” value in experiment [2] (PANC-1, 13C-labeled sugar, 72 h) is reported as 3-4 fold. In experiment [2] (PANC-1, 72 h, fructose compared to glucose), the “13C-labeled sugar metabolized for fatty acid synthesis” value is listed as “comparatively less”.
